Test results: patent publication US20080039442A1, “Compounds With Kv4 Ion Channel Activity” (Devgen NV, priority 2004, published 2008)
Where two headings read alike, the source gives them in different places.

Biological target: T1, human Kv4.3/KChIP2.2 potassium channel (Homo sapiens, UniProt Q9UK17)
T1 construct: expressed in transfected cells
T1 sequence (Q9UK17 1-655): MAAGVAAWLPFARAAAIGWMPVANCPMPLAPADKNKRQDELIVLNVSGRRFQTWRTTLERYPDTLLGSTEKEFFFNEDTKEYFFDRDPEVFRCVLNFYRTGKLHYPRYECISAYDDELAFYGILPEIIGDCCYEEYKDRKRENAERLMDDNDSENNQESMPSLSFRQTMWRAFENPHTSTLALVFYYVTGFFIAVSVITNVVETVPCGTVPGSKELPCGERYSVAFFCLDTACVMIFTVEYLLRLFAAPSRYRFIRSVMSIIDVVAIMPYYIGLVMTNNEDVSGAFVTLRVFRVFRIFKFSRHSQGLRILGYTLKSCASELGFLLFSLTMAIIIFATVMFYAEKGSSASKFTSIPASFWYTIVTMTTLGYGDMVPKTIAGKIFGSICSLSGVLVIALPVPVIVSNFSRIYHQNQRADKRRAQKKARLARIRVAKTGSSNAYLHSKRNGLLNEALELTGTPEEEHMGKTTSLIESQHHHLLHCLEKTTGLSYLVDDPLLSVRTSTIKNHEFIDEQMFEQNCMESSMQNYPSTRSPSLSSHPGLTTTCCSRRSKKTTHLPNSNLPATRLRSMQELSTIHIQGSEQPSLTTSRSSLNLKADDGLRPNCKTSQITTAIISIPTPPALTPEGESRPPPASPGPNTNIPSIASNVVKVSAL
T1 sequence (Q9NS61 1-270 partner): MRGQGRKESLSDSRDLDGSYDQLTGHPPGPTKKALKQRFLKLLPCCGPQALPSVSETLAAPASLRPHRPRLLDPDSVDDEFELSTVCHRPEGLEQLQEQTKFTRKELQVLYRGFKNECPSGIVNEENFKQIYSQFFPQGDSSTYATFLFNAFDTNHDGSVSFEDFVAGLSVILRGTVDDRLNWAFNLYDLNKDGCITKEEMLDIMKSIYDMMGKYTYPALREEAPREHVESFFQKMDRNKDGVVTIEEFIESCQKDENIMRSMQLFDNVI
Assay: Whole cell patch clamp, CHO-K1 cells stably expressing Kv4.3/KChIP2.2
Type: cell-based
Details: for remaining activity at 1 µM: CHO-K1
In short: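 Whole-cell patch clamp at 20-25 °C, bath pH 7.4 with 4 mM KCl, pipette 130 mM KCl/10 mM EGTA/5 mM Na2ATP. Compound at […] (≤0.1% DMSO), n=2; pulses from −100 mV to +40 mV for 300 ms at 0.1 Hz, P/n (n=5) leak-corrected, cells with 1–50 nA currents only.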

[1] = Table 12, read-out: Kv4.3 charge IC50
[2] = read-out: Kv4.3 charge in %: remaining current measured after application of the compound and relative to the blank
[3] = read-out: Kv4.3 peak in %: remaining peak height measured after application of the compound and relative to the blank
[4] = Table 6, estimated from 2 μM, hill=1, ymax=100, read-out: IC50 (μM) Kv4.3

| Molecule | IC50 [1] [µM] | remaining activity at 1 µM [2] [%] | remaining activity at 1 µM [3] [%] | IC50 (Table 9, read-out: IC50 (μM) Kv4.3) [µM] | IC50 [4] [µM] |
| --- | --- | --- | --- | --- | --- |
| C[C@@H](NC(=O)c1cc2cc(Cl)ccc2o1)c1ccc([N+](=O)[O-])cc1 [Compound 1, 5-chloro-benzofuran-2-carboxylic acid [(R)-1-(4-nitro-phenyl)-ethyl]-amide] | 2.08 | – | – | – | – |
| 5-chloro-benzofuran-2- carboxylic acid [3- (10,11-dihydro- dibenzo[a,d]cyclohepten- 5-ylidene)-propyl]- methyl-amide [Compound 5] | 16 | – | – | – | 16 |
| 5-chloro-benzofuran-2- carboxylic acid 2,4- dimethoxy- benzylamide [Compound 2] | 1.75 | – | – | 1.75 | 1.75 |

More lines, main results first:

| IC50 [1] [µM] | remaining activity at 1 µM [2] [%] | remaining activity at 1 µM [3] [%] | IC50 (Table 9, read-out: IC50 (μM) Kv4.3) [µM] | Molecule | IC50 [4] [µM] |
| --- | --- | --- | --- | --- | --- |
| – | 30 | 87 | – | Cc1c(C(=O)NCc2ccc(F)c(C(F)(F)F)c2)sc2ccc(Cl)cc12 [Compound 107, 5-chloro-3-methyl-benzo[b]thiophene-2-carboxylic acid 4-fluoro-3-trifluoromethyl-benzylamide] | – |
| – | 37 | 77 | – | O=C(NCc1ccc(OC(F)(F)F)cc1)c1cc2cc(Cl)ccc2o1 [Compound 89, 5-chloro-benzofuran-2-carboxylic acid 4-trifluoromethoxy-benzylamide] | – |
